Source: EPA's ToxValDB 9.5 (doi:10.2903/j.efsa.2018.5465)
Values after ≈ are worked out from the molar mass of the structure shown.

Assays:
Typhlodromus pyri = experiment: LR50; higher = less toxic; conditions: acute; mortality
Colinus virginianus = conditions: reproduction developmental
Daphnia magna = conditions: chronic/long-term; duration: 21 days
Folsomia candida = conditions: chronic/long-term; duration: 28 days
Coturnix japonica = conditions: acute; oral; mortality
Apis mellifera = conditions: acute, mortality
Oncorhynchus mykiss = conditions: acute; duration: 96 hours; mortality
Canidae = conditions: chronic; duration: 1 years; Dog Other; clinical signs
Tagia sp. = conditions: chronic/long-term; duration: 56 days

Compound: CCN(CC)C(=O)[C@@H](C)Oc1cccc2ccccc12 [(R)-N,N-Diethyl-2-(1-naphthyloxy)propionamide]
- LR50 (Typhlodromus pyri): > 4140 g/ha
- NOAEL (Colinus virginianus): 309 mg/kg-day
- LD50 (Rattus norvegicus; acute, oral, mortality): > 2000 mg/kg-day
- NOAEL (Rattus norvegicus; chronic, duration: 2 years, body weight): 30 mg/kg-day
- NOAEL (Rattus norvegicus; subchronic, duration: 90 days, oral, hematological): 46 mg/kg-day
- NOEC (Daphnia magna): 0.1 mg/L
- NOEC (Folsomia candida): 47.7 mg/kg
- LD50 (Coturnix japonica): > 2000 mg/kg-day
- LD50 (Apis mellifera; dermal): > 110 µg/piece
- LD50 (Apis mellifera; oral, unspecified): > 110 µg/piece
- LC50 (Oncorhynchus mykiss): 11.2 µg/mL (≈ 41.3 µM)
- NOAEL (Canidae): 50 mg/kg-day
- NOEC (Tagia sp.): 17.1 mg/kg
